Experimental data taken from patent publication US20070203225A1, “METHOD OF INCREASING ENDOGENOUS ADIPONECTIN PRODUCTION AND LEPTIN PRODUCTION” (priority 2001, published 2007).
“Also recorded” adds a separate entry of the source.

What was measured:
cultured rat adipocytes = test: Adiponectin secretion by isolated cultured rat adipocytes over 96 h; assay type: cell-based
Procedure: Several studies have reported that thiazolidenediones (TZDs), agonists of PPARγ, increase adiponectin expression and circulating levels in animals (Maeda, 2001; Yamauchi, 2001a; Ye, 2003). TZD (10 μM Troglitazone) stimulated of adiponectin secretion from cultured rat adipocytes from 3 different depots (n=6). Mesenteric fat produced the largest amount of adiponectin over 96 hours in culture. (FIG. 5A). Adiponectin secretion from both the control- and TZD-treated adipocytes was well correlated with the glucose utilization (control, r=0.79; p<0.001); (TZD-treated, r=0.84, p=<0.0001, FIG. 5B) showing that, similar to leptin production, glucose metabolism also is involved in the regulation of adiponectin production by adipocytes.
Insulin increased adiponectin production from 3 different fat depots, however as in the experiments with troglitazone, the mesenteric depot produced the most adiponectin (FIG. 6B). Like leptin, both basal and insulin-stimulated adiponectin secretion was highly correlated to glucose utilization (r=0.91, p<0.0001) (FIG. 6C), and inversely related to the proportion of glucose metabolized to lactate (r=−0.81, p<0.0001) (FIG. 6D).
Also paralleling the regulation of leptin, adiponectin secretion by isolated cultured adipocytes was increased during 96 h culture by inhibitors of PDH-K. DTNB (100 μM) increased adiponectin secretion by 40% (p<0.03, n=6, FIG. 7A). DCA (2 mM) increased adiponectin secretion by 23% (p<0.025, n=6, FIG. 7B). The increase in adiponectin induced by DTNB was highly correlated with glucose utilization (r=0.95, p<0.004). Furthermore in adipocytes transfected with antisense directed at PDH-K, adiponectin secretion was stimulated by 24.3±8.4%, p<0.05, n=7, FIG. 7C).
Cell isolation/preparation: Adipocytes are prepared from epididymal fat pads from male Sprague-Dawley rats weighing 300-600 g. Epididymal fat depots are resected from halothane anesthetized rats under aseptic conditions and adipocytes are isolated by collagenase digestion by the Rodbell method (Rodbell M. Metabolism of isolated fat cells. I. Effects of hormones on glucose metabolism and lipolysis. J Biol Chem. 1964; 239: 375-380), with minor modifications as previously described (Mueller W M, Gregoire F M, Stanhope K L, Mobbs C V, Mizuno T M, Warden C H, Stem J S, Havel P J. Evidence that glucose metabolism regulates leptin secretion from isolated adipocytes. Endocrinology 139: 551-558, 1998; Mueller W M, Stanhope K L, Gregoire F, Evans J L, Havel P J. Effects of metformin and vanadium on leptin secretion from cultured rat adipocytes. Obesity Res. 8: 530-539, 2000; Medina E A, Stanhope K L, Mizuno T M, Mobbs C V, Gregoire F, Hubbard N E, Erickson K L, Havel P J. Effects of tumor necrosis factor alpha on leptin secretion and gene expression: relationship to changes of glucose metabolism in isolated rat adipocytes. Int J Obes Relat Metab Disord. 23: 896-903, 1999.). The isolated adipocytes are then incubated for 30 minutes at 37 C before being plated and cultured on Matrigel-coated plates.
Adipocyte Culture: Adipocytes are maintained in culture anchored to a basement membrane matrix (Matrigel, Becton Dickinson, Franklin Lakes, N.J.) or collagen from Cohesion Technologies, (Palo Alto, Calif.). […]

isolated rat adipocytes = test: Glucose oxidation: incorporation of 14C-glucose into CO2 by isolated rat adipocytes; assay type: cell-based
Procedure: Substrate Oxidation: Oxidation is measured using a modification of the method of Rodbell (Rodbell, 1964) and a modification of the cell culture system described by Bottcher and Furst (Bottcher, 1996). Briefly, adipocytes are isolated, counted and sized as previously described. Adipocytes are plated as described except they are placed in a sterile 20 ml scintillation vial instead of a well. Two ml of treatment media containing [U-^14C]-substrate (0.3 uCi/ml; glucose, fatty acids, malate, fumarate, pyruvate) is added to the vials. The vials are filled with 95% O2-5% CO2 gas and capped with rubber stoppers fitted with a hanging center well. Each well contains a 2×8 cm strip of Whatman No. 1 paper. Vials are maintained at 37° C. for 48 hr. After 48 hr, a sample of media is removed from each vial using a 4 inch, 23 gauge needle. Using another syringe and 23 gauge needle, 200 ul of sodium benzethonium is placed onto the paper strip and hanging well to capture CO2. Concentrated sulfuric acid is added to the vial in order to lyse cells and liberate all CO2 from the collagen matrix. After 24 hours, the hanging well and paper are transferred to another vial containing scintillation fluid and counted. The data are expressed as % DPM recovered as CO2 of the total DPM remaining in the media at 48 hours and as micromoles of substrate oxidized over time.

Row | Compound | adiponectin secretion, 96 hr total (cultured rat adipocytes; 1.6 nM insulin, control 179.9±35.3 ng, n=6) [ng] | effect on adiponectin secretion (in words) (cultured rat adipocytes; insulin (1.6 nM), 96 hour culture) | increase of proportional oxidation of glucose (isolated rat adipocytes; insulin 1.6 nM) [%] | effect on amount of glucose oxidized to CO2 (in words) (isolated rat adipocytes; insulin 1.6 nM, n=18) | increase of adiponectin secretion (cultured rat adipocytes; DTNB 100 μM, DCA 2 mM, 96 h culture, n=6) [%] | effect on adiponectin secretion (in words) (cultured rat adipocytes; PDH kinase inhibitors DTNB and DCA) | effect on absolute and proportional glucose oxidation, labeled glucose into CO2 (in words) (isolated rat adipocytes; DTNB (50 μM in FIG. 20) and DCA (2 mM), percent of control)
1 | insulin | 312.3 ± 44 | significant increase; also recorded: increases | 43.6±10.6 | doubles; also recorded: markedly increases |  |  | 
2 | O=C(O)c1cc(SSc2ccc([N+](=O)[O-])c(C(=O)O)c2)ccc1[N+](=O)[O-] [DTNB, 5,5′-Dithiobis(2-nitrobenzoate)] |  |  |  |  | 40 | increase | increase
